In paper PMC13080969 (Journal of Chemical Information and Modeling, 2026):
Like-named read-outs stand apart in the source and are kept apart here.

What was measured:
[1] = parameters: method as in PMID 39334981; conditions: clinical comparators; read-out: CC50 (cytotoxicity); cited from earlier work
[2] = tested on: intracellular L. infantum amastigotes; parameters: method as in PMID 39334981; conditions: clinical comparators, cited from earlier work; for IC50: read-out: IC50 against intracellular L. infantum amastigotes
[3] = tested on: intracellular L. infantum amastigotes; experiment: Intracellular assay in infected THP-1-derived macrophages; format: cell-based, Leishmania infantum; conditions: for IC50: 48 h; for Selectivity index Intracellular: SI = CC50/IC50
Method: (§1) L. infantum promastigotes were grown at 26 °C in Schneider medium (Sigma), supplemented with 20% heat-inactivated fetal bovine serum (Sigma) and 1% penicillin-streptomycin (Sigma). To ensure maintenance of virulence, the parasites were serially passed through BALB/c mice. THP-1 cells were cultured in RPMI-1640 medium (Sigma-Aldrich), supplemented with 10% heat-inactivated SFB (Sigma) and 1% penicillin-streptomycin (Life Technologies), maintained at a density of 10^6 cells/mL, and incubated at 37 °C in a 5% CO2 atmosphere. For differentiation, THP-1 cells were seeded in 96-well culture plates at a concentration of 1 × 10^4 cells/well and treated with 100 ng/mL of […] (PMA, Sigma-Aldrich) and incubated for 48 h at 37 °C and 5% CO2. Cell viability was previously assessed using the Trypan Blue exclusion method. […] Differentiated THP-1 cells were washed with nonsupplemented RPMI-1640 and given fresh medium without PMA. The cells were rested for 24 h before further treatment.
THP-1 cells differentiated in 96-well culture plates were infected with promastigotes in the stationary phase at a ratio of 30 parasites: 1 cell for 4 h at 37 °C in a final volume of 100 μL. The noninternalized parasites were then removed by washing with RPMI-1640 medium. The compounds were diluted at concentrations of 200–0.7 μM in 100 μL of culture medium per well for serial dilution. Subsequently, 100 μL of the diluted compounds was added to the infected THP-1 cells and incubated for 48 h, with each condition tested in technical replicates (≥2 wells per condition). The number of intracellular parasites per 100 macrophages was counted using light microscopy. The infection rate was determined in relation to the mean of the control wells. The IC50 values were determined independently in three separate experiments by fitting concentration–response curves to a 4PL model in GraphPad Prism v10.

[4] = Cytotoxicity assay (resazurin); format: cell-based; conditions: human, THP-1 cells, pH 7.4
Method: as §1
THP-1 cells were cultured in 96-well plates at a density of 1 × 10^4 cells per well in 100 μL of RPMI 1640 medium supplemented with 10% heat-inactivated fetal bovine serum (FBS) and 25 mM HEPES (pH 7.4). Cultures were maintained at 37 °C in a humidified atmosphere containing 5% CO2. After 24 h of incubation, the test compounds were prepared in serial dilutions in complete medium, starting at a concentration of 200 μM. Subsequently, 100 μL of each diluted compound solution was added to the corresponding wells containing the cells, with each concentration tested in duplicate wells. Following a 72 h incubation period, resazurin solution (Sigma) was added to each well at a final concentration of 20 μM, and plates were incubated for an additional 4 h under the same conditions. Fluorescence was measured using a SpectraMax M5 microplate reader (Molecular Devices, Sunnyvale, CA, USA) with an excitation wavelength of 570 nm and an emission wavelength of 595 nm.

[5] = tested on: L. infantum promastigotes; experiment: Promastigote assay (resazurin viability); format: cell-based, Leishmania infantum; conditions: for IC50: Leishmania infantum, 48 h, read-out: L. infantum IC50 Promastigotes; for Selectivity index Promastigotes: SI = CC50/IC50
Method: as §1
To evaluate the effect of prioritized compounds on parasite viability, 4 × 10^6 promastigotes/mL were incubated in the presence of a series of 11 points (0.1% DMSO) for 48 h at 28 °C to a final volume of 200 μL in a 96-well microplate, with each condition tested in technical replicates (≥2 wells per condition). Next, 20 μL of resazurin solution (0.39 mM) was added to each well and incubated for 4 h, and then fluorescence was recorded (570 nmex/595 nmem) on a microplate reader SpectraMax M5 (Molecular Devices, Sunnyvale, CA). The IC50 values were determined in three independent experiments by fitting concentration–response curves using nonlinear regression with a four-parameter logistic (4PL) model in GraphPad Prism v10.

[6] = Experimental determination of distribution coefficient (eLogD), chromatographic; format: physicochemical; conditions: Supelco Ascentis Express RP Amide HPLC column; pH 7.4, chromatographic retention method
Method: (§2) ADME profiling was conducted using liquid chromatography coupled with tandem mass spectrometry (LC–MS/MS).
The eLogD was carried out using a chromatographic method based on the analyte retention times within a stationary phase. Separation was performed on a Supelco Ascentis Express RP Amide high-performance liquid chromatography (HPLC) column (5 cm × 2.1 mm, 2.7 μm particle size), utilizing a binary mobile phase system composed of 5% methanol in 10 mM ammonium acetate buffer at pH 7.4 (designated as solvent A), and pure methanol (solvent B). […] The injection volume for each sample was 5 μL. Test compounds were diluted to a concentration of 1.0 mg/mL in a 1:1 mixture of mobile phases A and B, containing an internal standard at 200 nM. Final DMSO concentration was kept below 2%. […] A calibration curve was generated by plotting the retention times of these standards against their corresponding eLogD values. The linear regression equation (y = mx + b) obtained from this curve was then used to calculate the eLogD of each test compound.

[7] = Mouse liver microsomal stability assay; format: in vitro ADME; conditions: CD1, mouse, mouse liver microsomes, pH 7.4, 0.25 mg/mL protein; for microsomal CLint at 0.5 μM: read-out: MLM CLint; for half-life at 0.5 μM: read-out: MLM T 1/2
Method: as §2
Compounds were diluted to a final concentration of 0.5 μM and incubated with microsomal protein at 0.25 mg/mL in phosphate-buffered saline (PBS) at pH 7.4. The DMSO content in the incubation mixture was maintained below 1%. The metabolic reaction was initiated by introducing NADPH as a cofactor at a concentration of […]. Aliquots were taken at defined time intervals: 0 (immediately after NADPH addition), 5, 10, 20, 30, and 60 min. Reactions were halted by the addition of a quenching solvent consisting of a 1:1 mixture of acetonitrile and methanol containing an internal standard at 50 nM. Following quenching, samples were centrifuged at 3500 rpm for 30 min to pellet the precipitated microsomal proteins. The resulting supernatants were analyzed via LC–MS/MS. Quantification was performed based on the peak area ratio (PAR) of the analyte to internal standard, with the signal at time zero defined as 100%. The percentage of parent compound remaining at each time point was calculated accordingly. Using the plot of % remaining versus incubation time, the degradation rate constant (k) was determined via nonlinear regression. […] Chromatographic analysis was carried out using a Supelco Ascentis Express C18 column (3 cm × 2.1 mm, 5 μm particle size). The mobile phases were composed of water with 0.1% formic acid (A) and acetonitrile with 0.1% formic acid (B). […] All metabolic stability assays were conducted in triplicate.

[8] = Parallel artificial membrane permeability assay (PAMPA); format: in vitro ADME; conditions: donor pH 6.5, acceptor pH 7.4, 5 h, 37 °C; for Papp at 5 h, 10 μM: PAMPA, read-out: PAMPA Pe
Method: as §2
Each well is divided into two chambers, donor and acceptor, separated by a triple-layer phospholipid membrane constructed on a porous filter. Solutions of the compounds are prepared by diluting their respective stock solutions (10 mM in DMSO) in phosphate-buffered saline (PBS) at pH 6.5, yielding a final concentration of 10 μM (<1% DMSO, v/v). The solutions are then added to the donor portion of the plate (300 μL/well) in triplicate, while the acceptor portion received only PBS pH 7.4 (200 μL/well). The donor and acceptor portions are subsequently assembled, and the system is incubated for 5 h at 37 °C and 100 rpm. […] After the incubation period, samples are collected from the donor (10 μL) and acceptor (80 μL) wells and added to the analysis plate containing stop solution (300 μL) and PBS buffer pH 6.5 (60 μL). Final compound concentrations in the donor, acceptor, and Tzero wells are quantified by LC-MS/MS. The chromatogram for analysis was achieved on Supelco Ascentis express C18 column (3 cm × 2.1 mm, 5 μM). The mobile phases consisted of water +0.1% formic acid (A) and acetonitrile +0.1% formic acid (B). […] The results were used to calculate an effective permeability (Pe) value. All PAMPA assay was performed in triplicates.

[9] = Leishmania infantum, Macrophage, THP-1-derived macrophages infected with L. infantum, read-out: L. infantum IC50 Intracellular
[10] = Leishmania infantum, Macrophage, read-out: L. infantum IC50 Intracellular, THP-1-derived macrophages infected with L. infantum, 48 h
[11] = THP-1-derived macrophages infected with L. infantum, read-out: L. infantum IC50 Intracellular

SMILES | Selectivity index Intracellular [3] | CC50 at 72 h [4] [µM] | IC50 ([5]; resazurin) [µM] | Selectivity index Promastigotes [5] | other results
C[C@@H]1[C@H](O)[C@@H](C)/C=C/C=C/C=C/C=C/C=C/C=C/C=C/[C@H](O[C@@H]2O[C@H](C)[C@@H](O)[C@H](N)[C@@H]2O)C[C@@H]2O[C@](O)(C[C@@H](O)C[C@@H](O)[C@H](O)CC[C@@H](O)C[C@@H](O)CC(=O)O[C@H]1C)C[C@H](O)[C@H]2C(=O)O [Amphotericin B] | – | – | – | – | CC50 [1]: 1.2 µM; SI [2]: 8.6; IC50 [2]: 0.14 µM
Cc1ccccc1CN1CCC(CN(Cc2cccnc2)Cc2cc(CC(C)C)[nH]n2)CC1 [LC-58] | 4.48 | 35 ± 5.2 | 7.85 ± 0.64 | 4.45 | IC50 [3, 9]: 7.81 ± 4.13 µM
CCc1nc(C)c(C(=O)NCC(c2cccnc2)N2CCCCC2)s1 (centres unmarked) [LC-59] | – | – | > 20 | – | –
Cc1cc(F)ccc1N1CCC(NC(Cn2ccnc2)c2ccccc2)CC1 (centres unmarked) [LC-60] | – | 40.8 ± 28.2 | 0.43 ± 0.05 | – | chromatographic logD [6]: 4.45; microsomal CLint at 0.5 μM [7]: 120 µL/min/mg; half-life at 0.5 μM [7]: 0.386 h; Papp at 5 h, 10 μM [8]: 6.36 ×10⁻⁶ cm/s
CCCCC(NC1CCN(c2ccccc2F)CC1)c1cccnc1 (centres unmarked) [LC-61] | – | 157 ± 20.7 | 0.037 ± 0.002 | – | chromatographic logD [6]: 4.07; Papp at 5 h, 10 μM [8]: 4.86 ×10⁻⁶ cm/s; PAMPA Pe [8]: 4.86 10^–6 cm/s
Fc1ccc(N2CCC(NCC(c3cccnc3)N3CCCCC3)CC2)cc1F (centres unmarked) [LC-62] | >24.7 | > 100 | 9.62 ± 0.98 | >10.4 | –
Fc1cccc(CN(Cc2cccnc2)CC2CCCN(C3CCCCC3)C2)c1 (centres unmarked) [LC-63] | – | 32.9 ± 5.22 | – | 7.26 | IC50 [3, 10]: 11.5 ± 24 µM; IC50 [5]: 4.53 ± 0.8 µM
Cc1ccccc1CN1CCC(CN(Cc2cccnc2)Cc2nc(C(C)C)cs2)CC1 [LC-64] | 4.13 | 27.8 ± 3.59 | 3.95 ± 0.42 | 7.03 | IC50 [3, 9]: 6.72 ± 5.79 µM
O=C(C(c1cccnc1)N1CCOCC1)N1CCCN(Cc2ccc(F)cc2)CC1 (centres unmarked) [LC-65] | – | > 245 | – | – | IC50 [3, 10]: > 55.5 µM; IC50 [5]: 3.59 ± 0.53 µM
O=C(Cc1ccccc1)NC(c1ccc(Cl)cc1)c1cccnc1 (centres unmarked) [LC-66] | >2.46 | > 100 | 3.18 ± 0.72 | >31.4 | IC50 [3, 9]: 40.5 ± 58.7 µM
O=C(NCCc1cnc[nH]1)c1cc(-c2ccccc2)nc2ccccc12 [LC-67] | – | – | > 20 | – | –
Cc1ccc(C)c(-c2nc(NC(=O)c3ccncc3)sc2C)c1 [LC-68] | – | – | > 20 | – | –
Cc1ccc(C)c(-c2nc(NC(=O)C3CC3)sc2C)c1 [LC-69] | – | – | > 20 | – | –
CC(C)N1CCC(C(=O)NC(c2ccc(Cl)cc2)c2cccnc2)CC1 (centres unmarked) [LC-70] | – | – | > 20 | – | –
O=C1OCc2ccc(NC(=O)N3CCCCC3c3cccnc3)cc21 (centres unmarked) [LC-71] | >20.5 | > 200 | 11.7 ± 2.86 | >17.1 | IC50 [3, 10]: < 10 µM; IC50 [3, 11]: 9.76 ± 10.2 µM
Cn1nnc2cc(NC(=O)N3CCCCC3c3cccnc3)ccc21 (centres unmarked) [LC-72] | – | – | > 20 | – | –
CC(C)n1cc(C(=O)NC(c2ccc(Cl)cc2)c2cccnc2)cn1 (centres unmarked) [LC-73] | – | – | > 20 | – | –
O=C(Nc1ccc(Cl)cn1)N1CCCCC1c1cccnc1 (centres unmarked) [LC-74] | – | > 200 | 0.49 ± 0.07 | – | chromatographic logD [6]: 2.39; microsomal CLint at 0.5 μM [7]: 27.2 µL/min/mg; half-life at 0.5 μM [7]: 1.7 h; Papp at 5 h, 10 μM [8]: 10.8 ×10⁻⁶ cm/s
OC(COc1ccc(Br)cc1)Cn1ccnc1 (centres unmarked) [LC-75] | >14.8 | > 100 | 10.5 ± 1.26 | >9.52 | IC50 [3, 10]: < 10 µM; IC50 [3, 11]: 6.73 ± 3.27 µM
CCCCCCCCCCCCCCCCOP(=O)([O-])OCC[N+](C)(C)C [miltefosine] | – | – | – | – | CC50 [1]: 51.1 µM; SI [2]: 138; IC50 [2]: 0.37 µM
